From PMC3583800, “Identification of active Plasmodium falciparum calpain to establish screening system for Pf-calpain-based drug development” (Malaria Journal, 2013) come the findings set out here.

The target of the assay is T1, rPfcal-IIa (Pf-calpain catalytic subdomain IIa) (Plasmodium falciparum, UniProt E5LAD0).
T1 construct: also baculovirus/High Five for the mutation study; monomeric proposed
T1 sequence (E5LAD0 822-1216): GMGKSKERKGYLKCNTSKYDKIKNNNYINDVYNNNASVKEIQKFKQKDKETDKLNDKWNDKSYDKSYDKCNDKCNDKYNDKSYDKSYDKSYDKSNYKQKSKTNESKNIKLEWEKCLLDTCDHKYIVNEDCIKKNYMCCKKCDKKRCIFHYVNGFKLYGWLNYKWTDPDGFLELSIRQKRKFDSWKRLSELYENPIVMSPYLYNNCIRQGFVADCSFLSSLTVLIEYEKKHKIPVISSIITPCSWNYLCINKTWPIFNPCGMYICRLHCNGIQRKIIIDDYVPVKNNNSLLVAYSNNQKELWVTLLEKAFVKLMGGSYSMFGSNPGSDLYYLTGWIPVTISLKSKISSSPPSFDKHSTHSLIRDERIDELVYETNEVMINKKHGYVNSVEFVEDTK
The assay is described as follows: fluorogenic Suc-LLVY-AMC assay and gelatin zymography. It is filed as biochemical. Particulars: 100 μM inhibitor pre-incubated 1 h at 37°C; 20 μM Suc-LLVY-AMC, 100 mM Tris-HCl pH 7.5, 1 mM DTT.

Structures are written as SMILES.

For the compound `CC(C)C[C@H](NC(=O)[C@@H]1O[C@H]1C(=O)O)C(=O)NCCCCNC(=N)N` [E-64], the “inhibition at 100 μM” value is “enzymatic activity of rPfcal-IIa protein was significantly inhibited by ALLN and E-64”.
